Experimental data as given in patent US20040266623A1, “SYNERGISTIC QUINCLORAC HERBICIDAL COMPOSITIONS” (priority 2003, published 2004).

Key:
Experiment in all cases: Greenhouse pot test, postemergent spray, visual control rating converted to percent control
Assay type in all cases: in vivo
[1] = test system: crabgrass; settings: for Control (1-9) Crabgrass: scale 1=no control, 9=death of plant
Experimental: (§1) Pots of crabgrass, dandelion, white clover, and plantain grown in greenhouse soiless growth media were sprayed with a greenhouse pot sprayer at 43.46 gallons of spray solution/acre and allowed to stand in the greenhouse. Visual observation of the effects made by the herbicidal compositions on the plants in the test pots was recorded for control of crabgrass, dandelion, clover and plantain at 24 hours after treatment (HAT), 48 hours after treatment (HAT), 72 hours after treatment (HAT), 7 days after treatment (DAT), 14 days after treatment (DAT) and 21 days after treatment (DAT). A control rating scale of 1 to 9 was used to record the visual observation of the effect of the herbicidal composition on the plants over the time period of the tests. 1=no control, and 9=death of plant, with intervening numbers representing successive degrees of observed effectiveness of the herbicidal composition over time. The 1-9 control rating scale was converted to percent control in the test data charts that follow.
(§2) The test protocol of S. R. Colby as set out in his article entitled “Calculating Synergistic and Antagonistic Responses of Herbicide Compositions,” received for publication Apr. 11, 1966, Contribution No. 3796 and Scientific Article No. 1271 of the Maryland Agricultural Experiment Station, Department pf Agronomy, University of Maryland was followed to evaluate the synergistic properties of the combination of quinclorac plus a herbicidal protox inhibitor, and a combination of quinclorac, plus a herbicidal protox inhibitor plus a herbicidal auxinic agent as compared with the individual herbicides, using Colby's formulas E=X+Y−XY/100 for a two herbicide combination, where E=the expected percent of inhibition of growth by herbicides, X=the percent inhibition of growth by herbicide A at p lb/A, and Y=the percent inhibition of growth by herbicide B at q lb/A, for a given combination of two herbicides. Colby's formula E=X+Y+Z−(XY+XZ+YZ)/100+XYZ/10,000, was used for the three-way herbicide combination evaluation, where E, X and Y are the same as in the two herbicide formula and Z=the percent inhibition of growth by the third herbicide.

[2] = test system: dandelion; settings: for Control (1-9) Dandelion: scale 1=no control, 9=death of plant
Experimental: as §1, §2

[3] = test system: white clover; settings: for Control (1-9) Clover: scale 1=no control, 9=death of plant
Experimental: as §1, §2

[4] = test system: plantain; settings: for Control (1-9) Plantain: scale 1=no control, 9=death of plant
Experimental: as §1, §2

O=C(O)c1c(Cl)ccc2cc(Cl)cnc12 [Quinclorac @ 0.18 lbs/A]
33.3%: % Control Crabgrass ([1]; Test 3, 14 DAT) | % Control Crabgrass ([1]; Test 3, 21 DAT) | % Control Dandelion ([2]; Test 3, 14 DAT) | % Control Dandelion ([2]; Test 3, 21 DAT) | % Control Plantain ([4]; Test 3, 14 DAT) | % Control Plantain ([4]; Test 3, 21 DAT)
4: Control (1-9) Clover ([3]; Test 3, 7 DAT) | Control (1-9) Clover ([3]; Test 3, 14 DAT)
6: Control (1-9) Clover ([3]; Test 3, 21 DAT)
11.1%: % Control Crabgrass ([1]; Test 3, 24 HAT) | % Control Crabgrass ([1]; Test 3, 72 HAT) | % Control Crabgrass ([1]; Test 4, 24 HAT) | % Control Crabgrass ([1]; Test 4, 72 HAT) | % Control Dandelion ([2]; Test 3, 24 HAT) | % Control Dandelion ([2]; Test 4, 24 HAT) | % Control Clover ([3]; Test 3, 24 HAT) | % Control Clover ([3]; Test 4, 24 HAT) | % Control Plantain ([4]; Test 3, 24 HAT) | % Control Plantain ([4]; Test 4, 24 HAT)
66.7%: % Control Clover ([3]; Test 3, 21 DAT)
2: Control (1-9) Crabgrass ([1]; Test 3, 7 DAT) | Control (1-9) Dandelion ([2]; Test 3, 7 DAT) | Control (1-9) Dandelion ([2]; Test 3, 72 HAT) | Control (1-9) Dandelion ([2]; Test 4, 72 HAT) | Control (1-9) Clover ([3]; Test 3, 72 HAT) | Control (1-9) Clover ([3]; Test 4, 72 HAT) | Control (1-9) Plantain ([4]; Test 3, 7 DAT) | Control (1-9) Plantain ([4]; Test 3, 72 HAT) | Control (1-9) Plantain ([4]; Test 4, 72 HAT)
3: Control (1-9) Crabgrass ([1]; Test 3, 14 DAT) | Control (1-9) Crabgrass ([1]; Test 3, 21 DAT) | Control (1-9) Dandelion ([2]; Test 3, 14 DAT) | Control (1-9) Dandelion ([2]; Test 3, 21 DAT) | Control (1-9) Plantain ([4]; Test 3, 14 DAT) | Control (1-9) Plantain ([4]; Test 3, 21 DAT)
1: Control (1-9) Crabgrass ([1]; Test 3, 24 HAT) | Control (1-9) Crabgrass ([1]; Test 3, 72 HAT) | Control (1-9) Crabgrass ([1]; Test 4, 24 HAT) | Control (1-9) Crabgrass ([1]; Test 4, 72 HAT) | Control (1-9) Dandelion ([2]; Test 3, 24 HAT) | Control (1-9) Dandelion ([2]; Test 4, 24 HAT) | Control (1-9) Clover ([3]; Test 3, 24 HAT) | Control (1-9) Clover ([3]; Test 4, 24 HAT) | Control (1-9) Plantain ([4]; Test 3, 24 HAT) | Control (1-9) Plantain ([4]; Test 4, 24 HAT)
44.4%: % Control Clover ([3]; Test 3, 7 DAT) | % Control Clover ([3]; Test 3, 14 DAT)
22.2%: % Control Crabgrass ([1]; Test 3, 7 DAT) | % Control Dandelion ([2]; Test 3, 7 DAT) | % Control Dandelion ([2]; Test 3, 72 HAT) | % Control Dandelion ([2]; Test 4, 72 HAT) | % Control Clover ([3]; Test 3, 72 HAT) | % Control Clover ([3]; Test 4, 72 HAT) | % Control Plantain ([4]; Test 3, 7 DAT) | % Control Plantain ([4]; Test 3, 72 HAT) | % Control Plantain ([4]; Test 4, 72 HAT)
